In patent US6921759B2, “Aza- and polyaza-naphthalenyl carboxamides useful as HIV integrase inhibitors” (Merck & Co., Inc., priority 2000, dated 2005):

Assay: Oral bioavailability of jet-milled v. unmilled Na salt
Assay type: in vivo
Conditions: jet-milled crystals (mean particle size about 3 to 5 microns) compared with unmilled (about 20 to 25 microns); orally administered formulations
Source text: The Na salt has been jet-milled to provide crystals with a mean particle size of about 3 to 5 microns (v. about 20 to 25 microns for unmilled material) for use in orally administered formulations.

## O=C(NCc1ccc(F)cc1)c1nc(N2CCCCS2(=O)=O)c2cccnc2c1[O-].[Na+] [Na salt, Sodium salt of 5-(1,1-Dioxido-1,2-thiazinan-2-yl)-N-(4-fluorobenzyl)-8-hydroxy-1,6-naphthyridine-7-carboxamide]
  oral bioavailability: improved oral bioavailability over the unmilled salt
